# Measurements taken from PubChem BioAssay (NCI).
#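 48-hour exposure; five concentrations; linearly interpolated endpoints. At the TGI there is no net growth.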
# Assays:
# Assay in all cases: growth of human tumour cells (NCI), 48 h
# SN12C renal = system: SN12C renal
# HOP-92 NSCLC = system: HOP-92 NSCLC
# SF-295 CNS = system: SF-295 CNS
# OVCAR-8 ovarian = system: OVCAR-8 ovarian
# HS 578T breast = system: HS 578T breast
# 786-0 renal = system: 786-0 renal
# NCI-H460 lung = system: NCI-H460 lung
# M14 melanoma = system: M14 melanoma
# UACC-62 melanoma = system: UACC-62 melanoma
# MDA-MB-231 breast = system: MDA-MB-231 breast
# EKVX NSCLC = system: EKVX NSCLC
# UO-31 renal = system: UO-31 renal
# UACC-257 melanoma = system: UACC-257 melanoma
# HCC-2998 colon = system: HCC-2998 colon
# SF-539 CNS = system: SF-539 CNS
# MCF7 breast = system: MCF7 breast
# SK-MEL-2 melanoma = system: SK-MEL-2 melanoma
# OVCAR-5 ovarian = system: OVCAR-5 ovarian
# OVCAR-3 ovarian = system: OVCAR-3 ovarian
# SNB-75 CNS = system: SNB-75 CNS
# SW-620 colon = system: SW-620 colon
# HCT-116 colon = system: HCT-116 colon
# IGROV1 ovarian = system: IGROV1 ovarian
# MALME-3M melanoma = system: MALME-3M melanoma
# A498 renal = system: A498 renal
# SK-OV-3 ovarian = system: SK-OV-3 ovarian
# ACHN renal = system: ACHN renal
# BT-549 breast = system: BT-549 breast
# CAKI-1 renal = system: CAKI-1 renal
# NCI/ADR-RES ovarian = system: NCI/ADR-RES ovarian
# COLO 205 colon = system: COLO 205 colon
# OVCAR-4 ovarian = system: OVCAR-4 ovarian
# K-562 leukemia = system: K-562 leukemia
# DU-145 prostate = system: DU-145 prostate
# SK-MEL-28 melanoma = system: SK-MEL-28 melanoma
# MDA-MB-435 = system: MDA-MB-435
# SNB-19 CNS = system: SNB-19 CNS
# T-47D breast = system: T-47D breast
# NCI-H226 lung = system: NCI-H226 lung
# TK-10 renal = system: TK-10 renal
# NCI-H522 lung = system: NCI-H522 lung
# SF-268 CNS = system: SF-268 CNS
# RPMI-8226 leukemia = system: RPMI-8226 leukemia
# HOP-62 NSCLC = system: HOP-62 NSCLC
# MDA-N = system: MDA-N
# CCRF-CEM leukemia = system: CCRF-CEM leukemia
# A549 NSCLC = system: A549 NSCLC
# HT29 colon = system: HT29 colon
# MOLT-4 leukemia = system: MOLT-4 leukemia
# U251 CNS = system: U251 CNS
# KM12 colon = system: KM12 colon
# PC-3 prostate = system: PC-3 prostate
# LOX IMVI melanoma = system: LOX IMVI melanoma
# RXF 393 renal = system: RXF 393 renal
# NCI-H23 lung = system: NCI-H23 lung
# HCT-15 colon = system: HCT-15 colon
# SK-MEL-5 melanoma = system: SK-MEL-5 melanoma
smiles,measurement,setting,value
[N-]=[N+]=Nc1c([N+](=O)[O-])c(Cl)nc2ccccc12,TGI,SN12C renal,5.32 µM
same,TGI,HOP-92 NSCLC,3.66 µM
same,TGI,SF-295 CNS,38.5 µM
same,TGI,OVCAR-8 ovarian,3.98 µM
same,TGI,HS 578T breast,8.64 µM
same,TGI,786-0 renal,1.11 µM
same,TGI,NCI-H460 lung,33.2 µM
same,TGI,M14 melanoma,3.27 µM
same,TGI,UACC-62 melanoma,9.07 µM
same,TGI,MDA-MB-231 breast,3.65 µM
same,TGI,EKVX NSCLC,7.45 µM
same,TGI,UO-31 renal,1.58 µM
same,TGI,UACC-257 melanoma,3.45 µM
same,TGI,HCC-2998 colon,4.17 µM
same,TGI,SF-539 CNS,9.74 µM
same,TGI,MCF7 breast,4.25 µM
same,TGI,SK-MEL-2 melanoma,5.07 µM
same,TGI,OVCAR-5 ovarian,5.63 µM
same,TGI,OVCAR-3 ovarian,2.86 µM
same,TGI,SNB-75 CNS,22.1 µM
same,TGI,SW-620 colon,1.73 µM
same,TGI,HCT-116 colon,3.09 µM
same,TGI,IGROV1 ovarian,4.04 µM
same,TGI,MALME-3M melanoma,3.41 µM
same,TGI,A498 renal,26.8 µM
same,TGI,SK-OV-3 ovarian,27.7 µM
same,TGI,ACHN renal,3.22 µM
same,TGI,BT-549 breast,3.11 µM
same,TGI,CAKI-1 renal,4.58 µM
same,TGI,NCI/ADR-RES ovarian,6.3 µM
same,TGI,COLO 205 colon,3.29 µM
same,TGI,OVCAR-4 ovarian,4.75 µM
same,TGI,K-562 leukemia,1.74 µM
same,TGI,DU-145 prostate,5.35 µM
same,TGI,SK-MEL-28 melanoma,5.23 µM
same,TGI,MDA-MB-435,6.64 µM
same,TGI,SNB-19 CNS,27.8 µM
same,TGI,T-47D breast,4.82 µM
same,TGI,NCI-H226 lung,33.5 µM
same,TGI,TK-10 renal,3.78 µM
same,TGI,NCI-H522 lung,0.866 µM
same,TGI,SF-268 CNS,11.7 µM
same,TGI,RPMI-8226 leukemia,> 20.8 µM
same,TGI,HOP-62 NSCLC,41.4 µM
same,TGI,MDA-N,6.56 µM
same,TGI,CCRF-CEM leukemia,1.44 µM
same,TGI,A549 NSCLC,35.2 µM
same,TGI,HT29 colon,5.09 µM
same,TGI,MOLT-4 leukemia,0.89 µM
same,TGI,U251 CNS,12.4 µM
same,TGI,KM12 colon,21.1 µM
same,TGI,PC-3 prostate,4.75 µM
same,TGI,LOX IMVI melanoma,3.07 µM
same,TGI,RXF 393 renal,3.28 µM
same,TGI,NCI-H23 lung,6.64 µM
same,TGI,HCT-15 colon,3.77 µM
same,TGI,SK-MEL-5 melanoma,21.3 µM
